Experimental data as given in patent publication US20250360235A1, “RADI[…] AND METHOD FOR RADIOLABELLING” (Telix Innovations SA, priority 2024, published 2025).

Experiment: Radiochemical purity by iTLC over time after radiolabelling
Assay type: physicochemical
Protocol: Table 1 to Table 5 show the results of various radiolabelling experiments on radiochemical purity and the chelation yield. The radiolabelling experiments in the tables are carried out as described in: • Example 1 for when the gallium-68 source is GE Liquid target generator and EZAG GalliaPharm generator; • Example 2 for when the gallium-68 source is IRE Galli Eo generator; • Example 3 for when the gallium-68 source is GE solid target generator;
However, the experiments were carried out with the amount of ascorbic acid as indicated in the Tables 1 to 5, and the activity as indicated in the Tables 1 to 5. Radiochemical purities were measured at various times (T0, T1, T4, T6) after the radiolabelled experiments have been conducted.
The kits of Example 1, Example 2 or Example 3, with amounts of ascorbic acid as set out in Table 7 were used in the experiments for the ascorbic acid bracketing matrix. Three strengths of [^68Ga]Ga-PSMA-11 will be tested, i.e. 50 mCi/ml, 7 mCi/ml and 1 mCi/ml. Radiochemical purity was determined at different time points (TO, T1, T4 or T6), as set out in Table 7.

[1] = 15 mg ascorbic acid, 10.0-18.4 mCi, 0.95-1.77 mCi/mL, 1 × EZAG GalliaPharm, 2 × IRE Galli Eo, average of 3, T1 (1 h)
[2] = 15 mg ascorbic acid, 10.0-18.4 mCi, 0.95-1.77 mCi/mL, 1 × EZAG GalliaPharm, 2 × IRE Galli Eo, n=3, T0
[3] = 15 mg ascorbic acid, 10.0-18.4 mCi, 0.95-1.77 mCi/mL, 1 × EZAG GalliaPharm, 2 × IRE Galli Eo, n=3, T1 (1 h)
[4] = 15 mg ascorbic acid, 23.7-47.6 mCi, 2.26-4.53 mCi/mL, 1 × EZAG GalliaPharm, 2 × IRE Galli Eo, average of 3, T0
[5] = 15 mg ascorbic acid, 23.7-47.6 mCi, 2.26-4.53 mCi/mL, 1 × EZAG GalliaPharm, 2 × IRE Galli Eo, average of 3, T4 (4 h)
[6] = 15 mg ascorbic acid, 23.7-47.6 mCi, 2.26-4.53 mCi/mL, 1 × EZAG GalliaPharm, 2 × IRE Galli Eo, n=3, T0
[7] = 15 mg ascorbic acid, 23.7-47.6 mCi, 2.26-4.53 mCi/mL, 1 × EZAG GalliaPharm, 2 × IRE Galli Eo, n=3, T4 (4 h)
[8] = 20 mg ascorbic acid, 514-544 mCi, 48.3-51.9 mCi/mL, GE Solid Target, average of 2, T0
[9] = 20 mg ascorbic acid, 514-544 mCi, 48.3-51.9 mCi/mL, GE Solid Target, average of 2, T6 (6 h)
[10] = 20 mg ascorbic acid, 514-544 mCi, 48.3-51.9 mCi/mL, GE Solid Target, n=2, T0
[11] = 20 mg ascorbic acid, 514-544 mCi, 48.3-51.9 mCi/mL, GE Solid Target, n=2, T6 (6 h)
[12] = 25 mg ascorbic acid, 19.5-20.0 mCi, 1.85-1.90 mCi/mL, EZAG GalliaPharm, average of 2, T0
[13] = 25 mg ascorbic acid, 19.5-20.0 mCi, 1.85-1.90 mCi/mL, EZAG GalliaPharm, average of 2, T1 (1 h)
[14] = 25 mg ascorbic acid, 19.5-20.0 mCi, 1.85-1.90 mCi/mL, EZAG GalliaPharm, n=2, T0
[15] = 25 mg ascorbic acid, 19.5-20.0 mCi, 1.85-1.90 mCi/mL, EZAG GalliaPharm, n=2, T1 (1 h)
[16] = 25 mg ascorbic acid, 23.3-24 mCi, 2.22-2.28 mCi/mL, IRE Galli Eo, average of 2, T0
[17] = 25 mg ascorbic acid, 23.3-24 mCi, 2.22-2.28 mCi/mL, IRE Galli Eo, average of 2, T4 (4 h)
[18] = 25 mg ascorbic acid, 23.3-24 mCi, 2.22-2.28 mCi/mL, IRE Galli Eo, n=2, T0
[19] = 25 mg ascorbic acid, 23.3-24 mCi, 2.22-2.28 mCi/mL, IRE Galli Eo, n=2, T4 (4 h)
[20] = 25 mg ascorbic acid, 46.0-46.1 mCi, 4.38-4.39 mCi/mL, EZAG GalliaPharm, average of 2, T0

O=C([O-])CN(CCN(CC(=O)[O-])Cc1cc(CCC(=O)NCCCCCC(=O)NCCCC[C@H](NC(=O)N[C@@H](CCC(=O)O)C(=O)O)C(=O)O)ccc1[O-])Cc1cc(CCC(=O)O)ccc1[O-].[68Ga+3].[OH3+] [[^68Ga]PSMA-11, gallium-68 radiolabelled Glu-urea-Lys-HBED-CC (gozetotide or PSMA-11)]
Radiochemical Purity (iTLC) Ga-68 PSMA-11 (%) (15 mg ascorbic acid, 10.0-18.4 mCi, 0.95-1.77 mCi/mL, 1 × EZAG GalliaPharm, 2 × IRE Galli Eo, average of 3, T0): 100%
Radiochemical Purity (iTLC) Free and Colloidal Ga-68 (%) [1]: 0%
Radiochemical Purity (iTLC) Ga-68 PSMA-11 (%) [1]: 100%
Radiochemical Purity (iTLC) Free and Colloidal Ga-68 (%) [2]: C (C = conforms to specifications)
Radiochemical Purity (iTLC) Ga-68 PSMA-11 (%) [2]: C (C = conforms to specifications)
Radiochemical Purity (iTLC) Free and Colloidal Ga-68 (%) [3]: C (C = conforms to specifications)
Radiochemical Purity (iTLC) Ga-68 PSMA-11 (%) [3]: C (C = conforms to specifications)
Radiochemical Purity (iTLC) Free and Colloidal Ga-68 (%) [4]: 0%
Radiochemical Purity (iTLC) Ga-68 PSMA-11 (%) [4]: 100%
Radiochemical Purity (iTLC) Free and Colloidal Ga-68 (%) [5]: 0%
Radiochemical Purity (iTLC) Ga-68 PSMA-11 (%) [5]: 100%
Radiochemical Purity (iTLC) Free and Colloidal Ga-68 (%) [6]: C (C = conforms to specifications)
Radiochemical Purity (iTLC) Ga-68 PSMA-11 (%) [6]: C (C = conforms to specifications)
Radiochemical Purity (iTLC) Free and Colloidal Ga-68 (%) [7]: C (C = conforms to specifications)
Radiochemical Purity (iTLC) Ga-68 PSMA-11 (%) [7]: C (C = conforms to specifications)
Radiochemical Purity (iTLC) Free and Colloidal Ga-68 (%) [8]: 3%
Radiochemical Purity (iTLC) Ga-68 PSMA-11 (%) [8]: 97%
Radiochemical Purity (iTLC) Free and Colloidal Ga-68 (%) [9]: 2%
Radiochemical Purity (iTLC) Ga-68 PSMA-11 (%) [9]: 98%
Radiochemical Purity (iTLC) Free and Colloidal Ga-68 (%) [10]: C (C = conforms to specifications)
Radiochemical Purity (iTLC) Ga-68 PSMA-11 (%) [10]: C (C = conforms to specifications)
Radiochemical Purity (iTLC) Free and Colloidal Ga-68 (%) [11]: C (C = conforms to specifications)
Radiochemical Purity (iTLC) Ga-68 PSMA-11 (%) [11]: C (C = conforms to specifications)
Radiochemical Purity (iTLC) Free and Colloidal Ga-68 (%) [12]: 2%
Radiochemical Purity (iTLC) Ga-68 PSMA-11 (%) [12]: 98%
Radiochemical Purity (iTLC) Free and Colloidal Ga-68 (%) [13]: 0%
Radiochemical Purity (iTLC) Ga-68 PSMA-11 (%) [13]: 100%
Radiochemical Purity (iTLC) Free and Colloidal Ga-68 (%) [14]: C (C = all results conform to specifications)
Radiochemical Purity (iTLC) Ga-68 PSMA-11 (%) [14]: C (C = all results conform to specifications)
Radiochemical Purity (iTLC) Free and Colloidal Ga-68 (%) [15]: C (C = all results conform to specifications)
Radiochemical Purity (iTLC) Ga-68 PSMA-11 (%) [15]: C (C = all results conform to specifications)
Radiochemical Purity (iTLC) Free and Colloidal Ga-68 (%) [16]: 1%
Radiochemical Purity (iTLC) Ga-68 PSMA-11 (%) [16]: 99%
Radiochemical Purity (iTLC) Free and Colloidal Ga-68 (%) [17]: 0%
Radiochemical Purity (iTLC) Ga-68 PSMA-11 (%) [17]: 100%
Radiochemical Purity (iTLC) Free and Colloidal Ga-68 (%) [18]: C (C = all results conform to specifications)
Radiochemical Purity (iTLC) Ga-68 PSMA-11 (%) [18]: C (C = all results conform to specifications)
Radiochemical Purity (iTLC) Free and Colloidal Ga-68 (%) [19]: C (C = all results conform to specifications)
Radiochemical Purity (iTLC) Ga-68 PSMA-11 (%) [19]: C (C = all results conform to specifications)
Radiochemical Purity (iTLC) Free and Colloidal Ga-68 (%) [20]: 0%
Radiochemical Purity (iTLC) Ga-68 PSMA-11 (%) [20]: 100%
